Experimental data published in patent publication US5530126A, “Process for the preparation of substituted 6-(pyrazol-3yl)-1,4-benzoxazin-3-ones” (Monsanto Company, priority 1994, dated 1996).

Tests used:
Type in all cases: in vivo
[1] = test system: Seedling johnsongrass; experiment: Pre-emergence herbicide test; settings: Sorghum halepense, read-out: % plant inhibition (Sejg); for inhibition at 1120 g/ha: 1.12 kg/ha
Description: (§1) The tests for pre-emergence herbicide activity are conducted as follows:
(§2) Topsoil is placed in an aluminum pan and compacted to a depth of 0.95 to 1.27 cm from the top of the pan. On the top of the soil is placed a predetermined number of seeds of each of several monocotyledonous and dicotyledonous annual plant species and/or vegetative propagules of various perennial plant species. A known amount of the active ingredient dissolved or suspended in an organic solvent, e.g., acetone, or water as carrier is then applied directly to the seed bed, which is then covered with a layer of untreated topsoil to level fill the pan. After treatment, the pans are moved to a greenhouse bench where they are watered from below as needed to give adequate moisture for germination and growth.
(§3) Approximately 10-14 days (usually 11 days) after seeding and treating, the pans are observed and the results (% inhibition) are recorded.
(§4) Tables 7 and 7A below summarize the results of the pre-emergence herbicidal activity tests of compounds of this invention in weeds. The herbicidal rating shown in these tables is the percent inhibition of each plant species. The plant species usually regarded as weeds which are utilized in one set of tests, the data for which are shown in the tables, are identified by letter headings above the columns in accordance with the following legend: […]

[2] = test system: Morningglory; experiment: Pre-emergence herbicide test; settings: Ipomoea, read-out: % plant inhibition (Mogl); for inhibition at 1120 g/ha: 1.12 kg/ha
Description: as §1, §2, §3, §4

[3] = test system: Velvetleaf; experiment: Pre-emergence herbicide test; settings: Abutilon theophrasti, read-out: % plant inhibition (Vele); for inhibition at 1120 g/ha: 1.12 kg/ha
Description: as §1, §2, §3, §4

[4] = test system: Barnyardgrass; experiment: Pre-emergence herbicide test; settings: Echinochloa crus-galli, read-out: % plant inhibition (Bygr); for inhibition at 1120 g/ha: 1.12 kg/ha
Description: as §1, §2, §3, §4

[5] = test system: Annual bluegrass; experiment: Pre-emergence herbicide test; settings: read-out: % plant inhibition (Anbg); for inhibition at 1120 g/ha: 1.12 kg/ha
Description: as §1, §2, §3, §4

[6] = test system: Yellow nutsedge; experiment: Pre-emergence herbicide test; settings: Cyperus, read-out: % plant inhibition (Yens); for inhibition at 1120 g/ha: 1.12 kg/ha
Description: as §1, §2, §3, §4

[7] = test system: Wild buckwheat; experiment: Pre-emergence herbicide test; settings: Fallopia convolvulus, read-out: % plant inhibition (Wibw); for inhibition at 1120 g/ha: 1.12 kg/ha
Description: as §1, §2, §3, §4

[8] = test system: Downy Brome; experiment: Pre-emergence herbicide test; settings: Bromus tectorum, read-out: % plant inhibition (Dobr); for inhibition at 1120 g/ha: 1.12 kg/ha
Description: as §1, §2, §3, §4

[9] = test system: Indian Mustard; experiment: Pre-emergence herbicide test; settings: Brassica juncea, read-out: % plant inhibition (Inmu); for inhibition at 1120 g/ha: 1.12 kg/ha
Description: as §1, §2, §3, §4

[10] = test system: Cocklebur; experiment: Pre-emergence herbicide test; settings: Xanthium strumarium, read-out: % plant inhibition (Cobu); for inhibition at 1120 g/ha: 1.12 kg/ha
Description: as §1, §2, §3, §4

[11] = test system: Seedling johnsongrass; experiment: Post-emergence herbicide test; settings: Sorghum halepense, read-out: % plant inhibition (Sejg); for inhibition at 1120 g/ha: 1.12 kg/ha
Excerpt: (§5) Topsoil is placed in aluminum pans having holes in the bottom and compacted to a depth of 0.95 to 1.27 cm from the top of the pan. A predetermined number of seeds of each of several dicotyledonous and monocotyledonous annual plant species and/or vegetative propagules for the perennial plant species are placed on the soil and pressed into the soil surface. The seeds and/or vegetative propagules are covered with soil and leveled. The pans are then placed on a bench in the greenhouse and watered from below as needed. After the plants reach the desired age (two to three weeks), each pan, is removed individually to a spraying chamber and sprayed by means of an atomizer, operating at a spray pressure of 170.3 kPa (10 psig) at the application rates noted. In the spray solution is an amount of an emulsifying agent mixture to give a spray solution or suspension which contains about 0.4% by volume of the emulsifier. The spray solution or suspension contains a sufficient amount of the candidate chemical in order to give application rates of the active ingredient corresponding to those shown in Tables 8 and 8A, while applying a total amount of solution or suspension equivalent to 1870 L/Ha (200 gallons/acre). The pans were returned to the greenhouse and watered as before and the injury to the plants as compared to the control is observed at approximately 10-14 days (usually 11 days) and in some instances observed again at 24-28 days (usually 25 days) after spraying. The post-emergent herbicidal activity shown in these tables is the percent inhibition of each plant species.

[12] = test system: Morningglory; experiment: Post-emergence herbicide test; settings: Ipomoea, read-out: % plant inhibition (Mogl); for inhibition at 1120 g/ha: 1.12 kg/ha
Excerpt: as §5

[13] = test system: Velvetleaf; experiment: Post-emergence herbicide test; settings: Abutilon theophrasti, read-out: % plant inhibition (Vele); for inhibition at 1120 g/ha: 1.12 kg/ha
Excerpt: as §5

[14] = test system: Barnyardgrass; experiment: Post-emergence herbicide test; settings: Echinochloa crus-galli, read-out: % plant inhibition (Bygr); for inhibition at 1120 g/ha: 1.12 kg/ha
Excerpt: as §5

[15] = test system: Annual bluegrass; experiment: Post-emergence herbicide test; settings: read-out: % plant inhibition (Anbg); for inhibition at 1120 g/ha: 1.12 kg/ha
Excerpt: as §5

[16] = test system: Yellow nutsedge; experiment: Post-emergence herbicide test; settings: Cyperus, read-out: % plant inhibition (Yens); for inhibition at 1120 g/ha: 1.12 kg/ha
Excerpt: as §5

[17] = test system: Wild buckwheat; experiment: Post-emergence herbicide test; settings: Fallopia convolvulus, read-out: % plant inhibition (Wibw); for inhibition at 1120 g/ha: 1.12 kg/ha
Excerpt: as §5

[18] = test system: Downy Brome; experiment: Post-emergence herbicide test; settings: Bromus tectorum, read-out: % plant inhibition (Dobr); for inhibition at 1120 g/ha: 1.12 kg/ha
Excerpt: as §5

[19] = test system: Indian Mustard; experiment: Post-emergence herbicide test; settings: Brassica juncea, read-out: % plant inhibition (Inmu); for inhibition at 1120 g/ha: 1.12 kg/ha
Excerpt: as §5

[20] = test system: Cocklebur; experiment: Post-emergence herbicide test; settings: Xanthium strumarium, read-out: % plant inhibition (Cobu); for inhibition at 1120 g/ha: 1.12 kg/ha
Excerpt: as §5

Row | SMILES | inhibition at 1120 g/ha [1] [%] | inhibition at 1120 g/ha [2] [%] | inhibition at 1120 g/ha [3] [%] | inhibition at 1120 g/ha [4] [%] | inhibition at 1120 g/ha [5] [%] | inhibition at 1120 g/ha [6] [%] | inhibition at 1120 g/ha [7] [%] | inhibition at 1120 g/ha [8] [%] | inhibition at 1120 g/ha [9] [%] | inhibition at 1120 g/ha [10] [%] | inhibition at 1120 g/ha [11] [%] | inhibition at 1120 g/ha [12] [%] | inhibition at 1120 g/ha [13] [%] | inhibition at 1120 g/ha [14] [%] | inhibition at 1120 g/ha [15] [%] | inhibition at 1120 g/ha [16] [%] | inhibition at 1120 g/ha [17] [%] | inhibition at 1120 g/ha [18] [%] | inhibition at 1120 g/ha [19] [%] | inhibition at 1120 g/ha [20] [%] | other results
1 | Cn1nc(-c2cc(COCCF)c(Cl)cc2F)c(Cl)c1C(F)(F)F [Compound 116] | 90 | 90 | 100 | 90 | 90 | 0 | 100 | 80 | 90 | 50 | 70 | 100 | 100 | 80 | 80 | 20 | 80 | 70 | 80 | 100 | –
2 | Cn1nc(-c2cc(C3OCCO3)c(Cl)cc2F)c(Cl)c1C(F)(F)F [Compound 100, 4-chloro-3-(4-chloro-5-(1,3-dioxolan-2-yl)-2-fluorophenyl)-1-methyl-5-(trifluoromethyl)-1H-pyrazole] | 90 | 80 | 100 | 70 | 90 | 0 | 100 | 100 | 100 | 20 | 100 | 100 | 100 | 100 | 100 | 20 | 100 | 100 | 80 | 80 | –
3 | Cn1nc(-c2cc(CC(=O)O)c(Cl)cc2F)c(Cl)c1C(F)(F)F [Compound 111] | – | – | – | – | – | – | – | – | – | – | – | – | – | – | – | – | – | – | – | – | inhibition at 11210 g/ha ([1]; 11.21 kg/ha): 80%; inhibition at 11210 g/ha ([2]; 11.21 kg/ha): 100%; inhibition at 11210 g/ha ([3]; 11.21 kg/ha): 100%; inhibition at 11210 g/ha ([4]; 11.21 kg/ha): 40%; inhibition at 11210 g/ha ([5]; 11.21 kg/ha): 80%; inhibition at 11210 g/ha ([6]; 11.21 kg/ha): 60%; inhibition at 11210 g/ha ([7]; 11.21 kg/ha): 100%; inhibition at 11210 g/ha ([8]; 11.21 kg/ha): 70%; inhibition at 11210 g/ha ([9]; 11.21 kg/ha): 100%; inhibition at 11210 g/ha ([10]; 11.21 kg/ha): 90%; inhibition at 11210 g/ha ([11]; 11.21 kg/ha): 20%; inhibition at 11210 g/ha ([12]; 11.21 kg/ha): 100%; inhibition at 11210 g/ha ([13]; 11.21 kg/ha): 100%; inhibition at 11210 g/ha ([14]; 11.21 kg/ha): 60%; inhibition at 11210 g/ha ([15]; 11.21 kg/ha): 0%; inhibition at 11210 g/ha ([16]; 11.21 kg/ha): 30%; inhibition at 11210 g/ha ([17]; 11.21 kg/ha): 100%; inhibition at 11210 g/ha ([18]; 11.21 kg/ha): 20%; inhibition at 11210 g/ha ([19]; 11.21 kg/ha): 80%; inhibition at 11210 g/ha ([20]; 11.21 kg/ha): 100%
4 | Cn1nc(-c2cc(NS(C)(=O)=O)c(Cl)cc2Cl)c(Cl)c1C(F)(F)F [Compound 91] | 0 | 90 | 100 | 0 | 0 | 0 | 70 | 0 | 90 | 20 | 40 | 60 | 40 | 30 | 50 | 10 | 80 | 40 | 50 | 100 | –
